Assay [1] concerns the target T1, human tyrosinase (hTyr) (Homo sapiens, UniProt P14679).
T1 sequence (P14679 19-476 limits assumed): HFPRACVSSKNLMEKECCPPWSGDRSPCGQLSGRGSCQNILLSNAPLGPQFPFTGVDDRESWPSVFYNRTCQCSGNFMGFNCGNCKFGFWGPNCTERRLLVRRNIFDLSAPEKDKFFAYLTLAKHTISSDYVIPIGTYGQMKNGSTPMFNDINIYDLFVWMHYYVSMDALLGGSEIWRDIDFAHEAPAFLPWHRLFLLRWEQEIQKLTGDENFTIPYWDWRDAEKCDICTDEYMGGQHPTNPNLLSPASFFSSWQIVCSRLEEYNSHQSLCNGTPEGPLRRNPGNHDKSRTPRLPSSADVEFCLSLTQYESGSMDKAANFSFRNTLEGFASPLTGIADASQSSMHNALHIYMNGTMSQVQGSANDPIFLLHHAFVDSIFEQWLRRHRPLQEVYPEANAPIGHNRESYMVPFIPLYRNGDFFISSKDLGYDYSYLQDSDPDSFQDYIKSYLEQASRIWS
Kind of assay: L-Dopa oxidase activity of hTyr, dose-response profiles (MBTH assay). It is filed as biochemical. Details: A truncated, His-tagged form of hTyr (hTyr-DHis) was expressed in HEK 293 cells; His tag; made in house; host or cells: HEK 293 cells. Particulars: for EC50: dopa oxidase activity of hTyr, 1 mM L-Dopa, phosphate buffer pH 7.0, 37 °C, values above 3 mM given as >3000; for inhibition of hTyr, result in words: comparison of EC50 values; for factor by which inhibitory activity is impaired when thiazole is replaced by another ring: versus the corresponding thiazole compound (W547, W548). The protocol: A truncated, His-tagged form of hTyr (hTyr-DHis) was expressed in HEK 293 cells and purified by metal affinity chromatography on Ni^2+-Sepharose as described by Cordes et al..
The L-Dopa oxidase activity of hTyr was assayed by a modification of the method of Winder and Harris. In this assay, the reaction product, L-dopaquinone, is trapped by MBTH (3-methyl-2-benzothiazoline hydrazone) to yield a stable pink dye that can be quantified at 490 nm. Reaction mixtures in 100 mM phosphate buffer, pH 7.0, were set up in microtiter plates together with appropriate blanks to account for nonenzymatic oxidation of substrate and product. After thermal equilibration at 37 °C for 10 min, the reactions were started by adding enzyme and monitored for 10–20 min at 490 nm. Absorption values were read at 15 s intervals and digitally stored for later analysis. Dose-response curves were obtained by testing various concentrations of each inhibitor in triplicate at a fixed substrate (L-Dopa) concentration of 1 mM.

Assay [2] addresses T1, human tyrosinase (hTyr). Particulars: in vitro; cited from earlier work.

Where only a bound is given, the exact number is not on record here.

These results are taken from paper PMC5877551, “Structure-Activity Relationships of Thiazolyl Resorcinols, Potent and Selective Inhibitors of Human Tyrosinase” (International Journal of Molecular Sciences, 2018).

In turn, `CCCCc1ccc(O)cc1O` [W039, 4-butylresorcinol, reference compound] displayed an EC50 at human tyrosinase (hTyr) [1] of 21 ± 4 µM.
At human tyrosinase (hTyr) [1], `CCCCCCc1ccc(O)cc1O` [W072, 4-hexylresorcinol, reference compound] displayed an EC50 of 93 ± 21 µM.
In the case of `Oc1cccc(O)c1` [W089, resorcinol], the concentration giving a half-maximal response (EC50) on human tyrosinase (hTyr) [1] is greater than 3000 µM.
Consider `Oc1ccc(-c2csc(Nc3ncccn3)n2)c(O)c1` [W311], for which, on human tyrosinase (hTyr) [1], the “inhibition of hTyr, result in words” value is listed as “mediates efficient inhibition” and the concentration for a half-maximal effect (EC50) stood at 3.2 ± 0.1 µM.
In the case of `CNc1nc(-c2ccc(O)cc2O)cs1` [W366], on human tyrosinase (hTyr) [1], the EC50 was found to be 33 ± 1 µM.
In turn, `Oc1ccc(-c2csc(Nc3ccccc3)n2)c(O)c1` [W367] showed an EC50 on human tyrosinase (hTyr) [1] of 10 ± 1 µM.
At human tyrosinase (hTyr) [1], `Oc1ccc(-c2csc(Nc3ncccn3)n2)cc1` [W452] displayed an EC50 of 19 ± 1 µM. This EC50 is about 1.9-fold higher than that of the molecule before.
Turning to `CCC(=O)Nc1nc(-c2ccc(O)cc2F)cs1` [W480], the EC50 at human tyrosinase (hTyr) [1] is greater than 3000 µM.
Still for that read-out and setting: as for `Nc1nc(-c2ccc(O)cc2O)cs1` [W495, 4-(2-amino-1,3-thiazol-4-yl) resorcinol], the figure is 51 ± 2 µM.
For `Oc1ccc(-c2csc(NCCc3ccccc3)n2)c(O)c1` [W496], on human tyrosinase (hTyr) [1], the “inhibition of hTyr, result in words” value is “markedly impair inhibition” and it took 140 ± 6 µM to reach a half-maximal effect (EC50).
Molecule `O=C(Nc1nc(-c2ccc(O)cc2O)cs1)c1ccccc1` [W498] had an EC50 at human tyrosinase (hTyr) [1] of 2.5 ± 0.1 µM.
In turn, `O=C(O)c1ccc(Nc2nc(-c3ccc(O)cc3O)cs2)cc1` [W529] displayed a concentration for a half-maximal effect (EC50) at human tyrosinase (hTyr) [1] of 2.6 ± 0.1 µM.
Still for that read-out and setting: the same measure for `CC(C)Nc1nc(-c2ccc(O)cc2O)cs1` [W533]: 6.2 ± 0.2 µM.
Regarding `CC(C)(C)Nc1nc(-c2ccc(O)cc2O)cs1` [W534], the EC50 on human tyrosinase (hTyr) [1] is 25 ± 1 µM.
Regarding `Cc1cc(C)cc(Nc2nc(-c3ccc(O)cc3O)cs2)c1` [W537], at human tyrosinase (hTyr) [1], the “inhibition of hTyr, result in words” value is given as “markedly impair inhibition” and the midpoint of the response, the EC50, lay at 160 ± 2 µM.
In the case of `CCCNc1nc(-c2ccc(O)cc2O)cs1` [W538], it took 5.6 ± 1.4 µM to reach a half-maximal effect on human tyrosinase (hTyr) [1] (EC50).
The molecule `Oc1ccccc1-c1csc(Nc2ncccn2)n1` [W539] gave an EC50 at human tyrosinase (hTyr) [1] greater than 3000 µM.
`Oc1ccc(Nc2nc(-c3ccc(O)cc3O)cs2)cc1` [W542]: the EC50 at human tyrosinase (hTyr) [1] came to 9.8 ± 0.3 µM.
At human tyrosinase (hTyr) [1], `CC(=O)Nc1nc(-c2ccc(O)cc2O)cs1` [W547] gave an EC50 of 3.2 ± 0.6 µM. Compared with the last molecule, the EC50 is about 3.1-fold lower.
Consider `O=C(Nc1nc(-c2ccc(O)cc2O)cs1)C1CCCCC1` [W548], for which the 50% effective concentration (EC50) at human tyrosinase (hTyr) [1] amounted to 4.6 ± 0.2 µM. The EC50 values of the last two molecules are within 1.5-fold of each other.
At human tyrosinase (hTyr) [1], `Oc1cccc(-c2csc(Nc3ncccn3)n2)c1O` [W568] yielded an EC50 greater than 3000 µM.
The same measure, in the same setting: as for `O=C(O)c1ccc(Nc2nc(-c3ccc(O)cc3O)cs2)cc1O` [W570], the figure is 3.5 ± 0.1 µM.
In the case of `CCCC(=O)Nc1nc(-c2ccc(O)cc2O)cs1` [W577], it took 3.5 ± 0.5 µM to reach a half-maximal effect at human tyrosinase (hTyr) [1] (EC50).
Regarding `CN(C(=O)C1CCCCC1)c1nc(-c2ccc(O)cc2O)cs1` [W605], on human tyrosinase (hTyr) [1], the “inhibition of hTyr, result in words” value is listed as “strongly” and the concentration for a half-maximal effect (EC50) came out at 1400 ± 160 µM.
On the same counts, the results for `O=C(NC1CCCCC1)c1nc(-c2ccc(O)cc2O)cs1` [W607] are “only moderately increases EC50” and 56 ± 3 µM.
In the case of `O=C(Nc1nc(-c2ccc(O)cc2O)cs1)c1ccc(CO)cc1` [W619], the response at human tyrosinase (hTyr) [1] was half-maximal at 1.6 ± 0.4 µM (EC50).
`CCCNc1nc(-c2cc(O)cc(O)c2)cs1` [W624] returned a concentration giving a half-maximal response (EC50) on human tyrosinase (hTyr) [1] greater than 3000 µM.
On to `Cc1sc(NC(=O)C2CCCCC2)nc1-c1ccc(O)cc1O` [W625], for which, on human tyrosinase (hTyr) [1], the “inhibition of hTyr, result in words” value is “abolished inhibition altogether” and the 50% effective concentration (EC50) is greater than 3000 µM.
With `CC(C)C(=O)Nc1nc(-c2ccc(O)cc2O)cs1` [W630, Thiamidol], at human tyrosinase (hTyr) [1], the concentration for a half-maximal effect (EC50) came out at 1.1 ± 0.1 µM.
In the case of `O=C(Nc1cccc(-c2ccc(O)cc2O)c1)C1CCCCC1` [W632], on human tyrosinase (hTyr) [1], the EC50 was greater than 3000 µM and the “factor by which inhibitory activity is impaired when thiazole is replaced by another ring” value was “at least 200”.
On the same counts, the results for `CC(=O)Nc1nc(-c2ccc(O)cc2O)c[nH]1` [W633] are 750 ± 60 µM and “at least 200”.
Turning to `CCCCc1ccc(O)c(C)c1O` [W639], at human tyrosinase (hTyr) [1], the “inhibition of hTyr, result in words” value is “markedly impaired inhibition” and it took 220 ± 10 µM to reach a half-maximal effect (EC50).
Consider `CN(c1nc(-c2ccc(O)cc2O)cs1)C1CCCCC1` [W646], for which, on human tyrosinase (hTyr) [1], the “inhibition of hTyr, result in words” value was “only moderately reduced inhibitory activity” and the EC50 was 40 ± 2 µM.
Consider `CC(C)(C)c1ccc(C(=O)Nc2nc(-c3ccc(O)cc3O)cs2)cc1` [W669], for which, on human tyrosinase (hTyr) [1], the “inhibition of hTyr, result in words” value is reported as “markedly impair inhibition” and the EC50 was 81 ± 5 µM.
Take `CC(C)(O)c1ccc(C(=O)Nc2nc(-c3ccc(O)cc3O)cs2)cc1` [W680]: the midpoint of the response at human tyrosinase (hTyr) [1], the EC50, lay at 3.2 ± 0.2 µM.
Consider `CCCC(=O)Nc1nc(-c2cc(CCC)c(O)cc2O)cs1` [W681], for which, on human tyrosinase (hTyr) [1], the “inhibition of hTyr, result in words” value is recorded as “abolished inhibition altogether” and the EC50 is greater than 3000 µM.
`CC(C)(C)C(=O)Nc1nc(-c2ccc(O)cc2O)cs1` [W687] yielded an EC50 at human tyrosinase (hTyr) [1] of 1.4 ± 0.1 µM.
In turn, `CCCCCCNc1nc(-c2ccc(O)cc2O)cs1` [W688] returned an EC50 on human tyrosinase (hTyr) [1] of 60 ± 2 µM.
`OCCCCCCNc1nc(-c2ccc(O)cc2O)cs1` [W692] gave an EC50 at human tyrosinase (hTyr) [1] of 6.9 ± 0.2 µM.
On the same count and under the same terms, as for `OCc1ccc(Nc2nc(-c3ccc(O)cc3O)cs2)cc1` [W693], the figure is 5.7 ± 0.2 µM.
On the same count and under the same terms, as for `Oc1ccc(-c2csc(NC3CCCCC3)n2)c(O)c1` [W694], the figure is 16 ± 1 µM; as for `CCCCCCC(=O)Nc1nc(-c2ccc(O)cc2O)cs1` [W695], 15 ± 1 µM.
In the case of `O=C(Cc1ccc(CO)cc1)Nc1nc(-c2ccc(O)cc2O)cs1` [W696], the response on human tyrosinase (hTyr) [1] was half-maximal at 6.5 ± 0.2 µM (EC50).
Turning to `O=C(NC1CCCCC1)c1csc(-c2ccc(O)cc2O)n1` [W701], on human tyrosinase (hTyr) [1], the “inhibition of hTyr, result in words” value is given as “abolishes activity” and the EC50 is greater than 3000 µM.
In the case of `OCCc1ccc(O)cc1O` [W785], on human tyrosinase (hTyr) [1], the “inhibition of hTyr, result in words” value is reported as “markedly impaired inhibition” and the EC50 came out at 560 ± 90 µM.
For `OC[C@H]1O[C@@H](Oc2ccc(O)cc2)[C@H](O)[C@@H](O)[C@@H]1O` [arbutin], the “hTyr inhibition compared with thiazolyl resorcinols, in words” value on human tyrosinase (hTyr) [2] was “clearly inferior to thiazolyl resorcinols”.
As to `Oc1ccc(O)cc1` [hydroquinone], the “hTyr inhibition compared with thiazolyl resorcinols, in words” value at human tyrosinase (hTyr) [2] is “clearly inferior to thiazolyl resorcinols”.
